In patent US11857601B2, “Pharmaceutical composition for cancer treatment comprising fusion protein including IL-2 protein and CD80 protein and anticancer drug” (GI INNOVATION, INC., priority 2020, dated 2024):

How the values were obtained:
Human CTLA-4 = target: T1, Human CTLA-4 (Homo sapiens, UniProt P16410); assay: Binding ability to CTLA-4 (Octet RED 384)
T1 construct: purchased Sino Biological 11159-H08H
Description: In order to identify the binding affinity between the fusion protein and its ligand, the binding affinity was measured using Octet RED 384.
AR2G biosensor (Amine Reactive 2nd gen, ForteBio, Cat: 18-5092) was previously hydrated with 200 μl of distilled water in a 96-well microplate (GreinerBio-one, Cat: 655209). A ligand (CTLA-4, Human CTLA-4/CD152, His tag, Sino Biological, Cat: 11159-H08H) to be attached to the AR2G biosensor was diluted with 10 mM acetate buffer (pH 5, AR2G reagent Kit, ForteBio, Cat: 18-5095) to a concentration of 5 μg/ml. […] Activation buffer was prepared by mixing 20 mM EDC and 10 mM s-NHS (AR2G reagent Kit, ForteBio, Cat: 18-5095) in distilled water. 80 μl of each reagent was placed in a 384-well microplate (GreinerBio-one, Cat: 781209) and the program was set up.
Binding kinetics measurements were performed using the Octet RED 384 instrument (ForteBio, Pall Life Science) with agitation at 30° C. and 1,000 rpm. The binding ability for CTLA-4 was measured using the Amine Reactive 2 generation (AR2G) biosensor chip, and the binding ability for PD-L1 was measured using the Nickel charged Tris-NTA (Ni-NTA) biosensor chip. The AR2G biosensor chip was activated with a combination of 400 mM EDC and 100 mM sulfo-NHS. […]

CT26 cells = assay: mGI-101 and Lenvatinib in CT26 allotransplanted tumor model; type: in vivo, BALB/c mice; details: end of the experiment, 10 mice per group
Description: CT26 cells were purchased from ATCC (USA) and cultured in RPMI1640 medium (Gibco) containing 10% FBS (Gibco) and 1% antibiotic/antifungal agent (Gibco). The cultured cells were harvested using trypsin (Gibco) and then suspended in PBS. In order to establish an allotransplanted tumor model, 1×10^6 CT26 cells were subcutaneously injected into the right flank of BALB/c female mice (7-week-old).
A certain period of time after the cell transplantation, the tumor volume was measured for animals with no abnormalities in the health condition of the animals, and the mice were assigned so that the average tumor volume of each group was less than 70-100 mm^3, each group including 10 mice.
In the case of Lenvatinib powder, the dose was calculated and weighed, and it was prepared to the dose concentration using a 0.5% methyl cellulose excipient. In order to minimize the loss of the test substance, the doses for 3 or 4 days were weighed, and prepared using the excipient on the day of administration and injected.
(§1) Clinical symptoms such as a disease and a behavioral change were observed once a day during the test period, and deceased animals were identified, and the mice were sacrificed when the tumor size reached a size of 4,000 mm^3.
The tumor volume before administration of each subject was set as the value measured at the time of grouping.
(§2) All statistical calculations were performed using Prism 8.0 (Graph Pad Software Inc, USA). The comparison of tumor volume measurements was made through two-way analysis of variance followed by Tukey's multiple comparison test. A p value of less than 0.05 was considered significant.

MC38 cells = assay: mGI-101 and DMXAA in MC38 allotransplanted tumor model; type: in vivo, C57BL/6 mice; details: day 60 after tumor injection; mGI-101 6 mg/kg i.p. BIW, DMXAA 450 μg I.T.; 5 mice per group
Description: In order to establish an allotransplanted tumor model, 5×10^5 of MC38 cells were subcutaneously injected into C57BL/6 mice. The tumor grafts of the mice were identified to be a size of 100-200 mm^3 about day 10 after cell inoculation, and the mice were assigned, each group including 5 mice.
The size of the MC38 solid cancer was measured three times a week during the observation period, and the major axis (maximum length, L) and minor axis (perpendicular width, W) of the tumor were measured using a caliper, and the tumor volume (TV) was calculated by substituting them into the following equation, and once the tumor size was no less than 2 cm, the mice were sacrificed. TV (mm^3)=(W^2×L)/2 [Equation 1]

EMT6 cells = assay: mGI-101 and Paclitaxel in EMT6 allotransplanted tumor model; type: in vivo, BALB/c mice
Description: EMT6 cells were purchased from ATCC (USA) and cultured in Waymouth MB 751/1 medium (WELGENE) containing 10% FBS (Gibco) and 1% antibiotic/antifungal agent (Gibco). The cultured cells were harvested using trypsin (Gibco), and then a high-concentration cell suspension (2×10^6 cells/0.4 mL) for 10 mice was prepare with PBS and stored on ice until injected into mice. In order to establish an allotransplanted tumor model, the skin was incised slightly away from the 4th nipple position from the upper right of the ventral region of BALB/c female mice (7-week-old), and the location of mammary fat pad at the incised site was identified, and then EMT6 cell line prepared inside the mammary fat pad was injected at 2×10^5 cells/40 uL/head.
A certain period of time after cell inoculation of the tumor grafts of the mice, the tumor volume was measured for animals with no abnormalities in the health condition of the animals, and the subjects were selected so that the average of each group reached less than 70-100 mm^3, and the selected animals were assigned as evenly as possible based on tumor volume and body weight, each group including 10 animals. As shown in Table 24 and FIG. 106, the test groups were configured and the test substances were administered.
as §1
The tumor volume before administration of each subject was set as the value measured at the time of grouping, and the anti-tumor efficacy was evaluated as compared with the vehicle control.
as §2

T1 sequence (P16410 36-223): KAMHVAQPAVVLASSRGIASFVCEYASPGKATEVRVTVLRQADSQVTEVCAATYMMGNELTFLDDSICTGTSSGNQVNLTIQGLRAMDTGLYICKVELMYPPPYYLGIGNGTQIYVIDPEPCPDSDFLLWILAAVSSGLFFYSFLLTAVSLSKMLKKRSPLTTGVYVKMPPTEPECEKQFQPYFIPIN

Substance	binding ability for CTLA-4 (Human CTLA-4)	number of mice with tumor growth inhibition rate of 30% or more (CT26 cells)	number of mice with tumor growth inhibition rate of 50% or more (CT26 cells)	number of mice with tumor growth inhibition rate of 80% or more (CT26 cells)	survival rate (MC38 cells)	number of mice with tumor growth inhibition rate of 30% or more (EMT6 cells; EMT6, 10 animals per group)	number of mice with tumor growth inhibition rate of 50% or more (EMT6 cells; EMT6, 10 animals per group)	number of mice with tumor growth inhibition rate of 80% or more (EMT6 cells; EMT6, 10 animals per group)	tumor size level vs control (EMT6 cells; day 11, mGI-101 3 mg/kg i.v. QW, Paclitaxel 10 mg/kg i.p. 7 consecutive days)	mice with complete remission (EMT6 cells; day 13, 10 animals per group)	tumor size vs control (EMT6 cells; day 13, mGI-101 3 mg/kg i.v. QW, Paclitaxel 10 mg/kg i.p. 7 consecutive days)
GI101: fusion protein: human CD80 fragment, Ig hinge, Fc domain, linker, IL-2 variant (2M) (R38A, F42A); SEQ ID NO: 9	high binding ability	–	–	–	–	–	–	–	–	–	–
mGI101: fusion protein: mouse CD80, Ig hinge, Fc domain, linker, IL-2 variant (2M) (R38A, F42A); SEQ ID NO: 15	–	6 mice	2 mice	1 mice	20%	6 mice	5 mice	5 mice	statistically significantly lower	2 mice	statistically significantly lower
